For one test, the system named is TNBC. As to conditions: single agents; cited from earlier work.
The subject of test [1] is K14cre; p53^f/f; Brca1^f/f tumors. As to the kind of experiment: Survival and tumor growth, Brca1-deficient immunocompetent TNBC mouse model. Type of test: in vivo. As to conditions: mice bearing K14cre, n=6 per group. An excerpt: (§1) All animal experiments were approved by the IACUC of the Beth Israel Deaconess Medical Center. Maximum permitted the longest dimension of tumors was 20 mm. Pieces from breast tumors generated in K14cre; p53^f/f; Brca1^f/f or K14cre; p53^wt/f; Brca1^wt/f female mice were transplanted into the mammary pad of 6-week-old FVB female mice. For survival studies, treatments were started once the tumors reached 3-5 mm in diameter and continued until mice were symptomatic or tumors reached 20 mm in any direction, at which point mice were euthanized. For time point analysis, mice were sacrificed two weeks post-treatment initiation. Control and anti-PD-L1 antibody (clone 29E.2A3) treatments were conducted by intraperitoneal injection with a dosage of 200 μg per mouse every three days. sulfopin treatment was given by intraperitoneal injection with a dosage of 60 mg/kg (7 days/week), abemaciclib treatment was given by oral gavage with a dosage of 100 mg/kg (7 days/week), or drug combinations in which each compound was administered at the same dose and scheduled as a single agent. Tumor sizes were measured every three days by caliper after implantation and tumor volume was calculated by the modified ellipsoidal formula: tumor volume=½length×width^2. The investigators were not blinded to allocation during experiments and outcome assessment.

Test [2] deals with K14cre; p53^wt/f; Brca1^wt/f tumors. The experiment in a line: Survival and tumor growth, Brca1-proficient immunocompetent TNBC mouse model. The test is classed as in vivo. As to conditions: mice bearing K14cre, n=10 per group.
Excerpt: as §1

The subject of test [3] is K14cre; Brca1^+/−; p53^−/−-TNBC. The experiment in a line: Survival until mandatory euthanasia, syngeneic FVB/N TNBC model with or without anti-PD-L1. The test is classed as in vivo. As to conditions: syngeneic FVB/N mice, time to mandatory euthanasia (tumor size 2 cm). The text has this:
All animal experiments were approved by the IACUC of the Beth Israel Deaconess Medical Center. Maximum permitted the longest dimension of tumors was 20 mm. Pieces from breast tumors generated in K14cre; p53^f/f; Brca1^f/f or K14cre; p53^wt/f; Brca1^wt/f female mice were transplanted into the mammary pad of 6-week-old FVB female mice. For survival studies, treatments were started once the tumors reached 3-5 mm in diameter and continued until mice were symptomatic or tumors reached 20 mm in any direction, at which point mice were euthanized. For time point analysis, mice were sacrificed two weeks post-treatment initiation. […] Tumor sizes were measured every three days by caliper after implantation and tumor volume was calculated by the modified ellipsoidal formula: tumor volume=½length×width^2. […]
A total of 86 FVB/N mice were grafted syngeneically with the K14cre; Brca1^+/−; p53″/tumors. […] Time to mandatory euthanasia (tumor size 2 cm) was recorded. […] Statistical significance was calculated using a two-sided log-rank test.

Test [4] relates to Cdh1 binding to Pin1 WW and PPIase domains. The experiment in a line: GST-Pin1 pull-down of HA-Cdh1 after sulfopin treatment. Type of test: cell-based, human. The conditions noted are these: MCF-7 cells expressing HA-Cdh1, sulfopin 3 days, 10 μM MG132 last 12 hrs. The procedure: GST pull-down was performed as described previously (Lee et al., Mol Cell 2011; 42:147-59). Briefly, cells were stably expressing indicated proteins and lysed in pull-down buffer (20 mM Tris pH 8.0, 150 mM NaCl, 1 mM EDTA pH 8.0, 0.5% Nonidet-P40). The cell extracts were pre-cleared by glutathione agarose beads and incubated with 1 μM GST or GST fusion proteins overnight at 4° C. Protein complexes were recovered on glutathione agarose beads for 2 hours at 4° C., washed four to six times with pull-down buffer and eluted by boiling in SDS-containing sample buffer. Bound proteins were resolved by SDS-PAGE.
To further define the molecular mechanism of Cdh1-mediated Pin1 degradation, the interaction of Pin1 and Cdh1 was examined using GST pull-down assays using GST-Pin1 point mutations. IB analysis of GST pull-down precipitates derived from 293T cells transfected with HA-Cdh1 and GST-Pin1 mutants as indicated for 36 hrs. The graphs were one representative experiment out of three independent experiments. […] FIG. 1K and FIG. 1L show the shift of Cdh1 binding from the WW− to the PPIase domain of Pin1 upon inhibition of PPIase activity. […] Bottom graphs quantification of IB analysis for bound HA-Cdh1. […]

The test system of test [5] is K14cre; p53^wt/f, Brca1^wt/f BT3 tumors. The experiment in a line: Survival and tumor growth, FVB mice bearing BT3 tumors. The test is classed as in vivo. The conditions noted are these: n=10 mice per group.
Excerpt: as §1

The next test has as its system MCF-7 cells. The experiment in a line: Time-lapse single-cell tracking with APC-degron reporter. Type of test: cell-based, human. The conditions noted are these: single living cells tracked, asynchronous MCF-7. The method, then:
MCF-7 cells were stably expressed with mCherry-Geminin (1-110) and a histone H2B-Turquoise. Cells were then plated 24 hours before starting the microscope acquisition. Pin1 inhibitors or CDK4/6 inhibitors were added in the medium and imaged using a Nikon Eclipse TE-2000 inverted microscope with a 10× Plan Apo objective and a Hammamatsu Orca ER camera, equipped with environmental chamber controlling temperature, atmosphere (5% CO2) and humidity. Images were acquired every 30 min using the MetaMorph Software. For each condition filmed, 4 different fields were selected.
p53Cinema single cell analysis package was used for semiautomatic tracking of individual cells in live cell imaging datasets as described previously (Reyes et al., Mol Cell 2018; 71:581-91 e5). Tracking data were then used to quantify intensity of fluorescent reporters from background subtracted images by averaging 10 pixels within the cell nucleus. Cells were tracked using only information about a constitutively expressed nuclear marker, such as H2B-Turquoise, and were thus blind to the dynamics of molecular players of interest, such as mCherry-Geminin. Only cells that remained within the field of view throughout the entire duration of the experiment were considered for downstream analyses. […] S/G2 durations were calculated by the time that cells spent in S/G2 phase after drugs were added.

For test [6], the system named is TNBC patient-derived xenograft (TM00096). The experiment in a line: In vivo therapy for TNBC patient-derived xenografts (PDOX). Set-up: species or system human tumor in BALB/c nude mice. The conditions noted are these: Rb-proficient TNBC PDOX, nude mice. The method, then:
All animal experiments were approved by the IACUC of the Beth Israel Deaconess Medical Center. Triple-negative BC patient-derived xenograft (TM00096) was purchased from Jackson Laboratories. Pieces from PDOX tumors were subcutaneously implanted into flank of 6-week-old BALB/c female nude mice. Tumor sizes were measured every three days by caliper after implantation and tumor volume was calculated by the modified ellipsoidal formula: tumor volume=½length×width^2. Treatments were started once the tumors reached 5 mm in diameter and continued until tumors reached 15 mm in any direction. […] Sulfopin treatment was given by intraperitoneal injection with a dosage of 40 mg/kg (dissolved solution: 5% DMSO in D5W, 7 days/week), palbociclib treatment was given by oral gavage with a dosage of 100 mg/kg (dissolved solution: saline, 5 days/week), abemaciclib treatment was given by oral gavage with a dosage of 100 mg/kg (dissolved solution: 0.5% CMC-Na, 5 days/week), or drug combinations in which each compound was administered at the same dose and scheduled as a single agent. […]
PDOX tumor tissue sections were boiled in 10 mM sodium citrate (pH 6.0), for antigen retrieval after deparaffinization. […] Slides were scanned at least three different representative areas at 20× magnification using BZ-X800 fluorescence microscope (KEYENCE).
In general terms: A xenograft is tissue or cells of one species grown in another, often human tumour cells in immunodeficient mice.

The test system of another test is Pin1 in MDA-MB-231 cells. The experiment in a line: Immunoblot of Pin1 inhibitor-induced Pin1 degradation with proteasome inhibitors. The test is classed as cell-based, human. The conditions noted are these: MDA-MB-231, AApin 3 days; 10 μM MG132 or 1 μM bortezomib last 12 hrs. The method, then:
For IB analysis, cells were lysed in RIPA buffer (Thermo) supplemented with protease inhibitors (Sigma) and phosphatase inhibitors (Sigma). Protein concentrations were measured using Protein Assay Dye Reagent (Bio-Rad) and a Beckman Coulter. Equal amounts of protein were resolved by SDS-PAGE and probed with indicated antibodies. For immunoprecipitation analysis, cells were lysed in IP lysis buffer (Thermo) and pre-cleared by Mouse IgG-Agarose (Sigma) for 1 hour at 4° C. and then incubated with anti-Flag M2-Agarose (Sigma) for 2 hours at 4° C. The agaroses were washed four times with IP lysis buffer and boiled in standard Laemmli-Buffer with 5% final concentration of β-mercaptoethanol before being resolved by SDS-PAGE and immunoblotted with indicated antibodies.
Exploration of the intrinsic upstream regulators that could affect Pin1 protein stability was then sought.
A general note: A western blot detects proteins with antibodies after separation by electrophoresis.

The target in test [7] is T1, Pin1 (Homo sapiens, UniProt Q13526). The experiment in a line: Proline isomerization study by 13C-HSQC NMR. Type of test: biochemical. The text has this:
Commercially synthesized specific ^13C, ^15N-P164 labeled Cdh1 phosphopeptide was used to facilitate direct quantitative determination of the cis and trans proline populations. The strong ^13C-HSQC peaks originating from Pro164 can be easily distinguished from the weak peaks due to ~1% natural abundance ^13C present in the rest of the peptide. […] Based on the interpretation of the chemical shifts, the major peaks were assigned as trans isomer and the minor peaks were assigned as cis isomer (Schubert et al. J Biomol NMR 24, 149-154 (2002)). The proline resonance assignments were further confirmed using a 2D-^13C-HSQCTOCSY experiment while no attempts were made to stereospecifically assign proton resonances, thus the assignment of HB2 and HB3, HG2 and HG3, and HD2 and HD3 are interchangeable. 58 μM free peptide and its complex with a 4-fold molar excess of Pin1, dissolved in the above-mentioned NMR buffer were used to estimate the cis and trans isomer populations at 25° C.

Test [8] addresses T1, Pin1. The experiment in a line: NMR titration of Cdh1 phosphopeptide with Pin1. The test is classed as binding. As to conditions: NMR chemical shift perturbation, pH 6.6, 25° C. The procedure: All NMR experiments were acquired on Bruker NEO 600 MHz spectrometer equipped with a TCI cryoprobe at 25° C. 0.1 mM ^13C, ^15N-enriched Pin1 sample dissolved in pH 6.6 buffer made-up of 20 mM Potassium Phosphate, 100 mM NaSO4 and 10% D2O was used to study peptide interaction. NMR assignments of Pin1 were taken from the BMRB database (accession number 27579) and confirmed using 3D-HNCA experiment. Synthetic peptides Cdh1-pS163 (comprised of Cdh1 residues 161-183 with phosphorylated Ser163 and isotope labeled Pro164, LR (pS)P(^13C, ^15N) […]) (SEQ ID NO: 27). were purchased from Pepmic. A systematic titration between Pin1 and phosphopeptide was performed by acquiring 2D-HSQC spectra. The absolute average chemical shift perturbation was calculated by using an equation, [(A8H2+ (A8N/5) 2)/2]½, available in software NMRFAM Sparky version 1.414.

*1 amine or outer side, *2 acyl side, *3 side chain or, on linkers, in order; H or OH if unused. Where a SMILES comes first, the peptide text is derived from it. Where no end group is shown, it is not given here. [ ]: non-standard residue; d: D form. The star is where a group is joined. Pro(13C,15N) = carbon and nitrogen isotope labeled proline, O=[13C]([13C@@H]1[13CH2][13CH2][13CH2][15N]1[*:1])[*:2]; pS = N[C@@H](COP(=O)(O)O)C(=O)O; Cbz = O=C(OCc1ccccc1)*

T1 sequence (Q13526 whole entry): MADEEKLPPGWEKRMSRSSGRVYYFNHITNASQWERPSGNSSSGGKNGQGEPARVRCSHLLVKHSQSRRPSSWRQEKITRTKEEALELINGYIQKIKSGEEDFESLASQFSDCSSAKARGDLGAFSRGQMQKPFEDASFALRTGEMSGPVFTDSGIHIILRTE

As for `CN(C)C(=O)c1cc2cnc(Nc3ccc(N4CCNCC4)cn3)nc2n1C1CCCC1` [ribociclib], the “single agent activity in TNBC” value in the test on TNBC is listed as “neither palbociclib nor ribociclib has activity in TNBC”.

For the compound `CCN1CCN(Cc2ccc(Nc3ncc(F)c(-c4cc(F)c5nc(C)n(C(C)C)c5c4)n3)nc2)CC1` [abemaciclib], the median survival in test [1] was found to be 31.5 days; in test [2] it was 25 days; in test [3], 31 days.

Turning to `CC(C)(C)CN(C(=O)CCl)C1CCS(=O)(=O)C1` (centres unmarked) [sulfopin], the median survival in [1] worked out at 27 days; in test [2] it was 25 days; in test [5] it was 21 days; in test [3], 22.5 days. Further, in test [4], the “binding mode of Cdh1 to Pin1” value was “shift from binding to the WW domain to the PPIase domain”. Moreover, the S/G2 duration result with MCF-7 cells is “strikingly prolonged S/G2 phases”. Further, the tumor growth entry in [6] is recorded as “limited single agent activity”.

As to `CC(=O)c1c(C)c2cnc(Nc3ccc(N4CCNCC4)cn3)nc2n(C2CCCC2)c1=O` [palbociclib], the median survival in test [5] was found to be 21 days.

With `CC(C)C[C@H](NC(=O)[C@H](Cc1ccccc1)NC(=O)c1cnccn1)B(O)O` [bortezomib], the “Pin1 inhibitor-induced Pin1 degradation” value with Pin1 in MDA-MB-231 cells is given as “rescued”.

As to `CC(C)C[C@@H](C=O)NC(=O)[C@H](CC(C)C)NC(=O)[C@H](CC(C)C)NC(=O)OCc1ccccc1` [MG132] (Cbz-Leu-Leu-Leu-aldehyde), in the test on Pin1 in MDA-MB-231 cells, the “Pin1 inhibitor-induced Pin1 degradation” value is given as “rescued”.

Turning to “Cdh1-pS163: Cdh1 residues 161-183 with phosphorylated Ser163 and isotope labeled Pro164 (SEQ ID NO: 27) (LR[pS][Pro(13C,15N)]RKPTRKISKIPFKVLDAPE)”, the cis-P164 isomer population with Pin1 [7] (1:4 complex with Pin1, 25° C.) is listed as 14.2%; in the test with Pin1 [7] (free peptide, 58 μM, 25° C.), 7%. In addition, in the test with Pin1 [8], the “binding to the Pin1 WW domain” value is “moderately strong affinity”.

The values are drawn from patent US12728132B2, “Inhibitors of the peptidyl-prolyl cis/trans isomerase (PIN1), combinations and uses thereof” (DANA-FARBER CANCER INSTITUTE, INC., priority 2021, dated 2026).
